Data on 24 compounds can be found in patent publication US11407737B2, “Inhibitors of RAF kinases” (Kinnate Biopharma Inc., priority 2020, dated 2022).

Counter-ions that a name gives are not always drawn.

Chain of human RAF1 (P04049 whole entry): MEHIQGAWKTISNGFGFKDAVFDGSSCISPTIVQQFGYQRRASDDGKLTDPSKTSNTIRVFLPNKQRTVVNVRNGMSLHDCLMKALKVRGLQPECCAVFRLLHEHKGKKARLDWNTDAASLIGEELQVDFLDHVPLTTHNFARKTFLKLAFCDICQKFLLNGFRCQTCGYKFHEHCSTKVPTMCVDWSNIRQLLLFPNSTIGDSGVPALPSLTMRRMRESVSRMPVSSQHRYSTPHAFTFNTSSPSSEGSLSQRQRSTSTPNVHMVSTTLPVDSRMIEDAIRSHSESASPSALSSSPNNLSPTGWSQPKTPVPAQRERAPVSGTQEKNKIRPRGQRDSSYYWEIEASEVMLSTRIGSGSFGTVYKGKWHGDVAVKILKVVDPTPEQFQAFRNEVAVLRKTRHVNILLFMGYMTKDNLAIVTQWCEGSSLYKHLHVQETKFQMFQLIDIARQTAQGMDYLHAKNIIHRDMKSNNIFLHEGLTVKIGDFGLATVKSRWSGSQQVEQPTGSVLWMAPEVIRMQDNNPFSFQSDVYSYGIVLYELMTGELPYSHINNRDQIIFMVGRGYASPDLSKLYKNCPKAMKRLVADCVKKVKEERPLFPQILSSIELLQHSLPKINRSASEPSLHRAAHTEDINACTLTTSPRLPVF

In this experiment the target is human RAF1 (Homo sapiens (Human), UniProt P04049). Nature of the experiment: Protein kinase assay (radiometric 33P-ATP, MEK1 (K97R) substrate), RAF-1. Format: biochemical. The settings on record: human MEK1 (K97R) substrate 3 micromolar, ATP 10 micromolar; 10-dose, 3-fold serial dilution starting at 10 micromolar; read-out: RAF-1 IC50. As to the method:
Example 1: Kinase Assay Protocol
Assay platform was used to measure kinase/inhibitor interactions as described previously (Anastassiadis et al., 2011). In brief, for each reaction, kinase and substrate were mixed in a buffer containing 20 mM HEPES (pH 7.5), 10 mM MgCl2, 1 mM EGTA, 0.02% Brij35, 0.02 mg/mL BSA, 0.1 mM Na3VO4, 2 mM DTT, and 1% DMSO. All compounds were solubilized in DMSO. Compounds were then added to each reaction mixture via acoustic dispense using an ECHO 550 nanoliter dispenser. For human RAF1 testing, human MEK1 (K97R) was used as a substrate at a concentration of 3 micromolar, with a final ATP concentration of 10 micromolar. For human BRAF testing, human MEK1 (K97R) was used as a substrate at 1 micromolar concentration, with a final ATP concentration of 25 micromolar. […] After a 20-min incubation, ATP (Sigma-Aldrich, St. Louis, Mo. 63178) and [g33P] ATP (specific activity 10 microCi/microliter) purchased at PerkinElmer (Boston, Mass., 02118 Cat #BLU 003H250UC) were added at a final total concentration of […]. Reactions were carried out at room temperature for 2 hr and spotted onto P81 ion exchange cellulose chromatography paper (Reaction Biology). Filter paper was washed in 0.75% phosphoric acid to remove unincorporated ATP. The percent remaining kinase activity relative to a vehicle-containing (DMSO) kinase reaction was calculated for each kinase/inhibitor pair. IC50 values were calculated using Prism 5 (GraphPad).
Take `Cc1ccc(NC(=O)N2CC[C@@H](CC(F)(F)F)C2)cc1-c1cc(/C=C/CO)nc(N2CCOCC2)c1` [Example 23, (3S)—N-(3-[2-[(1E)-3-hydroxyprop-1-en-1-yl]-6-(morpholin-4-yl)pyridin-4-yl]-4-methylphenyl)-3-(2,2,2-trifluoroethyl)pyrrolidine-1-carboxamide]: the IC50 (as a rule, the concentration at which inhibition is half-maximal) was less than 1 nM.
Take `Cc1ccc(NC(=O)N2CC[C@@H](CC(F)(F)F)C2)cc1-c1cc(CCCO)nc(N2CCOCC2)c1` [Example 24, (3S)—N-[3-[2-(3-hydroxypropyl)-6-(morpholin-4-yl)pyridin-4-yl]-4-methylphenyl]-3-(2,2,2-trifluoroethyl)pyrrolidine-1-carboxamide]: the IC50 is less than 1 nM.
The value for `COc1cc(-c2cc(-c3cc(NC(=O)N4CC[C@@H](CC(F)(F)F)C4)ccc3C)cc(N3CCOCC3)n2)ccn1` [Example 25, (3S)—N-[3-[2-methoxy-6-(morpholin-4-yl)-[2,4-bipyridin]-4-yl]-4-methylphenyl]-3-(2,2,2-trifluoroethyl)pyrrolidine-1-carboxamide] was less than 1 nM.
The value for `Cc1ccc(NC(=O)N2CC[C@@H](CC(F)(F)F)C2)cc1-c1cc(-c2cnc(O)o2)nc(N2CCOCC2)c1` [Example 26, (3S)—N-[3-[2-(2-hydroxy-1,3-oxazol-5-yl)-6-(morpholin-4-yl)pyridin-4-yl]-4-methylphenyl]-3-(2,2,2-trifluoroethyl)pyrrolidine-1-carboxamide] was less than 1 nM; that for `Cc1ccc(NC(=O)N2CC[C@@H](CC(F)(F)F)C2)cc1-c1cc(N2CCOCC2)nc(C(C)(C)O)c1` [Example 27, (3S)—N-[3-[2-(2-hydroxypropan-2-yl)-6-(morpholin-4-yl)pyridin-4-yl]-4-methylphenyl]-3-(2,2,2-trifluoroethyl)pyrrolidine-1-carboxamide] was 10 to 100 nM; that for `Cc1ccc(NC(=O)N2CC[C@@H](CC(F)(F)F)C2)cc1-c1cc(C2CCCNC2)nc(N2CCOCC2)c1` (stereo partly drawn) [Example 28, (3S)—N-[4-methyl-3-[2-(morpholin-4-yl)-6-(piperidin-3-yl)pyridin-4-yl]phenyl]-3-(2,2,2-trifluoroethyl)pyrrolidine-1-carboxamide] was 10 to 100 nM.
The figure for `Cc1ccc(NC(=O)N2CC[C@@H](CC(F)(F)F)C2)cc1-c1cc(C2CCCN(C)C2)nc(N2CCOCC2)c1` (stereo partly drawn) [Example 29, (3S)—N-[4-methyl-3-[2-(1-methylpiperidin-3-yl)-6-(morpholin-4-yl)pyridin-4-yl]phenyl]-3-(2,2,2-trifluoroethyl)pyrrolidine-1-carboxamide] is 1 to 10 nM; for `Cc1ccc(NC(=O)N2CC[C@@H](CC(F)(F)F)C2)cc1-c1cc(-c2ccnc(O)c2)nc(N2CCOCC2)c1` [Example 30, (3S)—N-[3-[2-hydroxy-6-(morpholin-4-yl)-[2,4-bipyridin]-4-yl]-4-methylphenyl]-3-(2,2,2-trifluoroethyl)pyrrolidine-1-carboxamide] it is 1 to 10 nM; for `Cc1ccc(NC(=O)N2CC[C@@H](CC(F)(F)F)C2)cc1-c1cc(C2=CCN(C)CC2)nc(N2CCOCC2)c1` [Example 31, (3S)—N-[4-methyl-3-[1′-methyl-6-(morpholin-4-yl)-3′,6′-dihydro-2′H-[2,4′-bipyridin]-4-yl]phenyl]-3-(2,2,2-trifluoroethyl)pyrrolidine-1-carboxamide] it is 10 to 100 nM.
For the compound `Cc1ccc(NC(=O)N2CC[C@@H](CC(F)(F)F)C2)cc1-c1cc(CCO)nc(N2CCOCC2)c1` [Example 32, (3S)—N-[3-[2-(2-hydroxyethyl)-6-(morpholin-4-yl)pyridin-4-yl]-4-methylphenyl]-3-(2,2,2-trifluoroethyl)pyrrolidine-1-carboxamide], the IC50 fell in the range of 1 to 10 nM.
The figure for `Cc1ccc(NC(=O)N2CC[C@@H](CC(F)(F)F)C2)cc1-c1cc(-c2cn[nH]c2)nc(N2CCOCC2)c1` [Example 33, (3S)—N-[4-methyl-3-[2-(morpholin-4-yl)-6-(1H-pyrazol-4-yl)pyridin-4-yl]phenyl]-3-(2,2,2-trifluoroethyl)pyrrolidine-1-carboxamide] is less than 1 nM; for `Cc1ccc(NC(=O)N2CC[C@@H](CC(F)(F)F)C2)cc1-c1cc(C2CCNC2)nc(N2CCOCC2)c1` (stereo partly drawn) [Example 34, (3S)—N-[4-methyl-3-[2-(morpholin-4-yl)-6-(pyrrolidin-3-yl)pyridin-4-yl]phenyl]-3-(2,2,2-trifluoroethyl)pyrrolidine-1-carboxamide] it is less than 1 nM; for `Cc1ccc(NC(=O)N2CC[C@@H](CC(F)(F)F)C2)cc1-c1cc(C2=CCN(C)C2)nc(N2CCOCC2)c1` [Example 35, (3S)—N-[4-methyl-3-[2-(1-methyl-2,5-dihydropyrrol-3-yl)-6-(morpholin-4-yl)pyridin-4-yl]phenyl]-3-(2,2,2-trifluoroethyl)pyrrolidine-1-carboxamide] it is 1 to 10 nM.
The value for `Cc1ccc(NC(=O)N2CC[C@@H](CC(F)(F)F)C2)cc1-c1cc(-c2ccn(C)n2)nc(N2CCOCC2)c1` [Example 36, (3S)—N-[4-methyl-3-[2-(1-methylpyrazol-3-yl)-6-(morpholin-4-yl)pyridin-4-yl]phenyl]-3-(2,2,2-trifluoroethyl)pyrrolidine-1-carboxamide] was less than 1 nM; that for `Cc1ccc(NC(=O)N2CC[C@@H](CC(F)(F)F)C2)cc1-c1cc(-c2cn(C)nc2C)nc(N2CCOCC2)c1` [Example 37, (3S)—N-[3-[2-(1,3-dimethylpyrazol-4-yl)-6-(morpholin-4-yl)pyridin-4-yl]-4-methylphenyl]-3-(2,2,2-trifluoroethyl)pyrrolidine-1-carboxamide] was 1 to 10 nM; that for `Cc1ccc(NC(=O)N2CC[C@@H](CC(F)(F)F)C2)cc1-c1cc(C2CCN(C)C2)nc(N2CCOCC2)c1` (stereo partly drawn) [Example 38, (3S)—N-(4-methyl-3-(2-(1-methylpyrrolidin-3-yl)-6-morpholinopyridin-4-yl)phenyl)-3-(2,2,2-trifluoroethyl)pyrrolidine-1-carboxamide formate] was 1 to 10 nM.
The value for `Cc1ccc(NC(=O)N2CC[C@@H](CC(F)(F)F)C2)cc1-c1cc(C2CCN(C)CC2)nc(N2CCOCC2)c1` [Example 39, (S)—N-(4-methyl-3-(2-(1-methylpiperidin-4-yl)-6-morpholinopyridin-4-yl)phenyl)-3-(2,2,2-trifluoroethyl)pyrrolidine-1-carboxamide formate] was 1 to 10 nM.
With `Cc1ccc(NC(=O)N2CC[C@@H](CC(F)(F)F)C2)cc1-c1cc(-c2ccnc(N)c2)nc(N2CCOCC2)c1` [Example 40, (3S)—N-[3-[2′-amino-6-(morpholin-4-yl)-[2,4′-bipyridin]-4-yl]-4-methylphenyl]-3-(2,2,2-trifluoroethyl)pyrrolidine-1-carboxamide], the IC50 lay within 1 to 10 nM.
As to `Cc1ccc(NC(=O)N2CC[C@@H](CC(F)(F)F)C2)cc1-c1cc(-c2cnn(C(F)F)c2)nc(N2CCOCC2)c1` [Example 41, (3S)—N-(3-[2-[1-(difluoromethyl)pyrazol-4-yl]-6-(morpholin-4-yl)pyridin-4-yl]-4-methylphenyl)-3-(2,2,2-trifluoroethyl)pyrrolidine-1-carboxamide], the IC50 was in the range of 1 to 10 nM.
Regarding `Cc1ccc(NC(=O)N2CC[C@@H](CC(F)(F)F)C2)cc1-c1cc(-c2cscn2)nc(N2CCOCC2)c1` [Example 42, (3S)—N-[4-methyl-3-[2-(morpholin-4-yl)-6-(1,3-thiazol-4-yl)pyridin-4-yl]phenyl]-3-(2,2,2-trifluoroethyl)pyrrolidine-1-carboxamide], the IC50 is 1 to 10 nM.
The figure for `Cc1ccc(NC(=O)N2CC[C@@H](CC(F)(F)F)C2)cc1-c1cc(-c2cnc(N)[nH]2)nc(N2CCOCC2)c1` [Example 43, (3S)—N-[3-[2-(2-amino-3H-imidazol-4-yl)-6-(morpholin-4-yl)pyridin-4-yl]-4-methylphenyl]-3-(2,2,2-trifluoroethyl)pyrrolidine-1-carboxamide] is 1 to 10 nM; for `Cc1ccc(NC(=O)N2CC[C@@H](CC(F)(F)F)C2)cc1-c1cc(-c2cc(N)n(C)n2)nc(N2CCOCC2)c1` [Example 44, (3S)-N-[3-[2-(5-amino-1-methylpyrazol-3-yl)-6-(morpholin-4-yl)pyridin-4-yl]-4-methylphenyl]-3-(2,2,2-trif1uoroethyl)pyrrolidine-1-carboxamide] it is 1 to 10 nM; for `Cc1ccc(NC(=O)N2CC[C@@H](CC(F)(F)F)C2)cc1-c1cc(-c2ccnc(N)n2)nc(N2CCOCC2)c1` [Example 45, (3S)—N-[3-[2-(2-aminopyrimidin-4-yl)-6-(morpholin-4-yl)pyridin-4-yl]-4-methylphenyl]-3-(2,2,2-trifluoroethyl)pyrrolidine-1-carboxamide] it is 1 to 10 nM.
The figure for `Cc1ccc(NC(=O)N2CC[C@@H](CC(F)(F)F)C2)cc1-c1cc(-c2ccnc(C(F)F)c2)nc(N2CCOCC2)c1` [Example 46, (3S)—N-[3-[2′-(difluoromethyl)-6-(morpholin-4-yl)-[2,4′-bipyridin]-4-yl]-4-methylphenyl]-3-(2,2,2-trifluoroethyl)pyrrolidine-1-carboxamide] is 1 to 10 nM.
